Among the test systems are NCI-H460; KB; Bel-7402.
What all share (assay): cells
Holding throughout (type): functional
Common to all, as to conditions: Homo sapiens, read-out: GI

Description for Bel-7402: Growth inhibition of Homo sapiens (human) Bel7402 cells at 100 ug/ml by MTT assay
Description for KB: Growth inhibition of Homo sapiens (human) KB cells at 100 ug/ml by MTT assay
Description for NCI-H460: Growth inhibition of Homo sapiens (human) NCI-H460 cells at 100 ug/ml by MTT assay

`O=C(CCCCCCCS)Nc1ccccc1` [8-MERCAPTO-OCTANOIC ACID PHENYLAMIDE]: the values for the inhibition of growth at 100 µg/mL in the experiment with NCI-H460 and in the experiment on KB were 32.4% and 18.6%, respectively.
Turning to `CC(=O)SCCCCCCCC(=O)Nc1ccccc1`, the values for the inhibition of growth at 100 µg/mL with Bel-7402, in the experiment with NCI-H460 and in the experiment on KB were 66.3%, 82.3% and 77%, respectively.

(Values after ChEMBL document CHEMBL3044592, “Synthesis, antiproliferation, and docking studies of N-phenyl-lipoamide and 8-mercapto-N-phenyloctanamide derivatives: effects of C6 position thiol moiety” (2012).)
